Experimental data: article PMC8576102, “Structure–Activity Relationship of Novel Second-Generation Synthetic Cathinones: Mechanism of Action, Locomotion, Reward, and Immediate-Early Genes” (Frontiers in Pharmacology, 2021)

How the values were obtained:
Arc mRNA [1] = test system: Arc mRNA; design: method as in Giannotti et al., 2017; conditions: 30 min and 2 h after administration; ref Giannotti et al., 2017; cited from earlier work
hDAT = biological target: T1, hDAT (Homo sapiens, UniProt Q01959); experiment: Uptake inhibition assay, [3H]MPP+ uptake in transfected HEK293 cells; type: cell-based; conditions: for hDAT/hSERT ratio: 1/DAT IC50: 1/SERT IC50
T1 construct: YFP (yellow-fluorescent protein); expressed in transfected cells
Method: (§1) Human embryonic kidney (HEK293) cells stably expressing the yellow-fluorescent protein (YFP)-tagged version of the human isoforms of SERT (abbreviated as SERT) and DAT (abbreviated as DAT) were used for the uptake inhibition and release assays. The generation and maintenance of stable, monoclonal cell lines expressing these transporters was conducted as described by ([Mayer F. P. et al., 2016]; [Mayer et al., 2016 FP.]). HEK293 cells were maintained in DMEM supplemented with heat-inactivated 10% FBS, 100 µg/100 ml streptomycin, 100 U/ml penicillin, and Geneticin (G418; 50 μg/ml) and cultured in a humidified atmosphere (5% CO2, 37°C). The cells were seeded at a density of 0.36 million cells/well onto 96-well plates previously coated (24 h) with poly-D-lysine (PDL).
(§2) The medium was removed and immediately replaced with 200 µL/well of Krebs-HEPES buffer (KHB; 10 mM HEPES, 120 mM NaCl, 3 mM KCl, 2 mM CaCl2·2H2O, 2 mM MgCl2·6H2O, 20 mM D-glucose; pH 7.3). The cells were pre-incubated with different concentrations of the drug in KHB at a final volume of 50 µL/well for 5 min (DAT, SERT). Immediately after, the pre-incubation solution was removed and the cells were incubated with the tritiated substrates, 0.02 µM [^3H]MPP^+ for the DAT (3 min) and 0.1 µM [^3H]5-HT for the SERT (1 min), along with different concentrations of the drug in KHB. Finally, the [^3H]substrate was removed and the cells were washed with ice-cold KHB followed by the addition of sodium dodecyl sulfate (SDS) 1%. The lysate was then added to the scintillation fluid, and the radioactivity was quantified with a beta-scintillation counter (Perkin Elmer, Waltham, MA, United States).
(§3) The uptake in the absence of the drug compound was normalized to 100%, being the percentage of the uptake in the presence of different concentrations of the drug expressed as a percentage thereof. 3–4 independent experiments were performed in duplicate.
(§4) Data were expressed as mean ± SEM. Competition curves were plotted and fitted by non-linear regression, and data were best fitted to a sigmoidal dose-response curve to obtain an IC50 value. 1/DAT IC50: 1/SERT IC50 was used to calculate transporter ratios. Data from batch release assays were statistically analyzed with a mixed-effects model, employing Šidák’s correction for multiple comparisons. One-way/two-way ANOVA or two-way ANOVA of repeated measures, followed by Tukey’s or Dunnett’s post hoc test, was also used when appropriate. The α error probability was set at 0.05 (p < 0.05). The size group for each experiment and statistical results are shown in the corresponding legend of figures. Statistical calculations were performed using GraphPad Prism (GraphPad Software, San Diego, CA, United States).

hSERT = biological target: T2, hSERT (Homo sapiens, UniProt P31645); experiment: Uptake inhibition assay, [3H]5-HT uptake in transfected HEK293 cells; type: cell-based
T2 construct: YFP (yellow-fluorescent protein); expressed in transfected cells
Method: as §1, §2, §3, §4

SERT = test system: T3, SERT; experiment: Batch release assay, [3H]5-HT release from SERT-expressing HEK293 cells; type: cell-based, human; conditions: for [3H]5-HT release at the SERT (in words): compound close to its IC50, KHB vs KHB + monensin 10 µM
T3 construct: YFP (yellow-fluorescent protein); expressed in transfected cells
Method: as §1
HEK293 cells expressing the transporter of interest were preloaded with the tritiated substrate 0.08 μM [^3H]5-HT (SERT) or 0.1 μM [^3H]MPP^+ (DAT) in KHB (50 μL/well) for 20 min (5% CO2, 37°C). Subsequently, the cells were washed three times using KHB (200 μL/well) at room temperature. Afterward, a pre-incubation step of 10 min in KHB or in KHB + monensin (Mon) 10 μM was done. […] To determine the specificity of drug-induced reverse transport, selective transporter inhibitors 0.05 μM paroxetine (SERT) and 0.5 μM of GBR12909 (DAT) and effective releasers 10 μM p-chloroamphetamine (PCA; SERT) and 10 μM d-amphetamine (DAT) were used (Supplementary Figure S1). The resulting supernatant was collected and transferred to a new well every 2 min (four times for KHB/Mon and five times for each tested compound). Three independent experiments were performed in duplicate. Liquid scintillation cocktail was added to the wells with remaining cells (200 μL) and with the transferred supernatant (100 μL) and to the wells used for total uptake and activity measurements (200 μL). Total radioactivity present in the supernatant and in the remaining cells was set as 100%, and the amount of [^3H] substrate present in the supernatant was expressed as percentage of the total.
as §4

Swiss CD-1 mice [2] = experiment: Horizontal locomotor activity (HLA); type: in vivo; conditions: for HLA after 30 mg/kg compared to the medium dose (10 mg/kg): 30 mg/kg vs 10 mg/kg i.p.; for HLA vs saline at the lowest dose: 3 mg/kg i.p., 60 min; for Persistence of the increase in locomotor activity: 10 mg/kg i.p.
Swiss CD-1 mice [3] = experiment: Conditioned place preference (CPP); type: in vivo; conditions: 30 mg/kg i.p.
Method: For the behavioral and gene expression experiments, male Swiss CD-1 mice (Janvier, Le Genest, France) weighing 30–35 g (6–8 weeks old) were used. With the aim of reducing the number of animals and minimize their suffering, animal procedures were performed in accordance with the ARRIVE guidelines. All animal care and experimental protocols in this study were in accordance with the guidelines of the European Community Council (2010/63/EU), as amended by Regulation (EU) 2019/1010, and approved by the Animal Ethics Committee of the University of Barcelona under the supervision of the Autonomous Government of Catalonia. The animals were housed in temperature-controlled conditions (22 ± 1°C) under a 12 h light/dark cycle and had free access to food and drinking water. During the study, the animals were supervised immediately after injection and during the behavioral procedure as well as 24 h after injection, and different parameters were visually evaluated for humane endpoints, such as self-mutilations, strange vocalizations, abnormal posture, or a greater weight loss than 20%. The sample size was determined using GPower software. […]
The rewarding effects were determined using a place conditioning paradigm as described by [Duart-Castells et al. (2019]). […] The time spent in each compartment was recorded (Smart 3.0, Panlab, Spain). […]

Arc mRNA [4] = experiment: Arc mRNA expression (qPCR) in ventral and dorsal striatum; type: in vivo, mice; conditions: 10 mg/kg i.p., 120 min after administration, vs saline
Method: (§5) Mice were injected with an acute dose of 10 mg/kg i.p. of the corresponding synthetic cathinone or saline solution. The dose was chosen according to the behavioral results obtained since it caused significant response in both CPP and HLA tests in all compounds tested. 30 min or 2 h post-administration, mice were sacrificed by cervical dislocation and the VS, DS, and mPFC were dissected out ([Paxinos and Franklin, 2004]) using a mouse brain acrylic matrix (Agnthos, Sweden) and stored at -80°C until use. Total RNA was isolated following a standard TRIsure reagent–chloroform extraction protocol ([Duart-Castells et al., 2019]).
(§6) Reverse transcription polymerase chain reaction (RT-PCR) was carried out to obtain complementary DNA (cDNA) by using the High Capacity cDNA Reverse Transcription Kit (Applied Biosystems) and the Veriti thermal cycler (Applied Biosystems, Foster, CA, United States). Synthesis of cDNA was obtained by mixing 1,000 ng of total RNA with the corresponding volumes of each kit reagent to a final volume of 20 μL. Quantitative real-time polymerase chain reaction (qPCR) was performed by using the StepOnePlus^TM Real-Time PCR System and TaqMan PCR Master Mix (Applied Biosystems, Foster, CA, United States). 25 ng of cDNA was loaded in a final volume of 20 μL containing sequence-specific primers and TaqMan probes (Mm01204954_g1 for Arc, Mm04230607_s1 for bdnf, Mm00487425_m1 for c-fos, and Mm00607939_s1 for β-actin). Each sample was tested in duplicate. qPCR conditions were 2 min at 50°C, 10 min at 95°C, 40 cycles/15 s at 95°C, and 60 s at 60°C. Changes in gene expression were defined by using the comparative Ct method for each experimental sample. Gene expression was normalized by using the mean of Ct values of the housekeeping gene β-actin.

c-fos mRNA = c-fos mRNA expression (qPCR) in ventral and dorsal striatum; type: in vivo, mice; conditions: 10 mg/kg i.p., vs saline; for c-fos expression in the VS, 120 min: 120 min after administration; for c-fos expression in the DS, 120 min: 120 min post injection
Method: as §5, §6

bdnf mRNA = bdnf mRNA expression (qPCR) in medial prefrontal cortex; type: in vivo, mice; conditions: 10 mg/kg i.p., 120 min after administration, vs saline
Method: as §5
Reverse transcription polymerase chain reaction (RT-PCR) was carried out to obtain complementary DNA (cDNA) by using the High Capacity cDNA Reverse Transcription Kit (Applied Biosystems) and the Veriti thermal cycler (Applied Biosystems, Foster, CA, United States). Synthesis of cDNA was obtained by mixing 1,000 ng of total RNA with the corresponding volumes of each kit reagent to a final volume of 20 μL. Quantitative real-time polymerase chain reaction (qPCR) was performed by using the StepOnePlus^TM Real-Time PCR System and TaqMan PCR Master Mix (Applied Biosystems, Foster, CA, United States). […]

T1 sequence (Q01959 whole entry): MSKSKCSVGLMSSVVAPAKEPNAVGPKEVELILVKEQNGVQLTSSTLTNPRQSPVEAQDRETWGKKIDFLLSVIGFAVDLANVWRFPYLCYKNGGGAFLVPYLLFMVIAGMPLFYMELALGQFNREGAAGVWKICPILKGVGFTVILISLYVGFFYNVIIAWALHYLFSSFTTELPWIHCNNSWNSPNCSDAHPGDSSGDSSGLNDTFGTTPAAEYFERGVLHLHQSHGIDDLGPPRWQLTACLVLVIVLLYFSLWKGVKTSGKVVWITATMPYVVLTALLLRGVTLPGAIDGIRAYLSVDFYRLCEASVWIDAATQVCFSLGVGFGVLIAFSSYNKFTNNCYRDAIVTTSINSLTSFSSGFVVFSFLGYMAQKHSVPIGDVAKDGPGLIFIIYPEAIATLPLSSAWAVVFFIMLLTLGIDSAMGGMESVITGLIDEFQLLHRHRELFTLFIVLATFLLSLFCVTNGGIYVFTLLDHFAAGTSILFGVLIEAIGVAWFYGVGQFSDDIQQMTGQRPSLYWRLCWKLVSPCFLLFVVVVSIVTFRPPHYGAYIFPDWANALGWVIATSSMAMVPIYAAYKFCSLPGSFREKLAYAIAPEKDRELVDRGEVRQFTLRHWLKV
T2 sequence (P31645 whole entry): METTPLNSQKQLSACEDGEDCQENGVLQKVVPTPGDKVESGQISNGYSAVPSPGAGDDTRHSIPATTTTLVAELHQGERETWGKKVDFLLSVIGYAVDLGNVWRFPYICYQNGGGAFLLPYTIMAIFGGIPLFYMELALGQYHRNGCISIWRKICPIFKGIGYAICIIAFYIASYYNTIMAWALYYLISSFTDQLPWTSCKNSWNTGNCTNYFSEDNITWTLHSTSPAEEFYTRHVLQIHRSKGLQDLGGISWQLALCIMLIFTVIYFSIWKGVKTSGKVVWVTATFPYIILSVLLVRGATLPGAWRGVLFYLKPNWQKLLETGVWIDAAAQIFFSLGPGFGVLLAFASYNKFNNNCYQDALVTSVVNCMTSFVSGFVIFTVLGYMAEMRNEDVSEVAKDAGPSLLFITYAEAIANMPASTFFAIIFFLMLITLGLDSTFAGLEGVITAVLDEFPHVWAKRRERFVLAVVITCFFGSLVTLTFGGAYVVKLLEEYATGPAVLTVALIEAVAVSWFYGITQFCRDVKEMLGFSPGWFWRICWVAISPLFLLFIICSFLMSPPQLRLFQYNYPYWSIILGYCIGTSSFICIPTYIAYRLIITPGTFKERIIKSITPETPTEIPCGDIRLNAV

SMILES	Arc mRNA levels in the striatum after acute injection (Arc mRNA [1])	IC50 (hDAT) [nM]	hDAT/hSERT ratio (hDAT)	IC50 (hSERT) [µM]	[3H]5-HT release at the SERT (in words) (SERT)	HLA after 30 mg/kg compared to the medium dose (10 mg/kg) (Swiss CD-1 mice [2])	[3H]5-HT release at SERT-expressing HEK293 cells, max. (SERT; compound close to its IC50 (NEP 6 µM))	HLA vs saline at the lowest dose (Swiss CD-1 mice [2])	Persistence of the increase in locomotor activity (Swiss CD-1 mice [2])	CPP rewarding effects vs saline at the highest dose (Swiss CD-1 mice [3])	Arc gene expression in the DS, 120 min (Arc mRNA [4])	Arc gene expression in the VS, 120 min (Arc mRNA [4])	c-fos expression in the DS, 30 min (c-fos mRNA; 30 min after injection)	c-fos expression in the VS, 30 min (c-fos mRNA; 30 min after injection)	bdnf mRNA levels in the mPFC, 120 min (bdnf mRNA)	c-fos expression in the VS, 120 min (c-fos mRNA)	c-fos expression in the DS, 120 min (c-fos mRNA)	Distance traveled (Swiss CD-1 mice [2]; 10 mg/kg, independent experiment, N = 15)
CCCC(C(=O)c1ccccc1)N1CCCC1 (stereo not drawn) [α-PVP]	did not alter	–	–	–	–	–	–	–	–	–	–	–	–	–	–	–	–	–
CCCC(NC)C(=O)c1ccc(C)cc1 (stereo not drawn) [4-MPD, 4’-methyl-α-methylaminovalerophenone]	–	290 ± 50	108	30.9 ± 6.23	most potent	significant increase	–	–	–	–	–	–	–	–	–	–	–	–
CCCC(NCC)C(=O)c1ccc2c(c1)OCO2 (stereo not drawn) [N-Ethyl-pentylone, 3’,4’-methylendioxy-α-ethylaminovalerophenone]	–	130 ± 10	51	6.37 ± 0.09	smallest	significant decrease	≈ 5 % total cpm	increase	more than 1 hour	significant increase	significant increase	significant increase	increased	significant overexpression	significant overexpression	–	–	–
CCCC(C(=O)c1ccc2c(c1)OCO2)N1CCCC1 (stereo not shown) [MDPV, 3,4-methylenedioxypyrovalerone]	increased	–	–	–	–	–	–	–	–	–	–	–	–	–	–	–	–	–
CCCC(NC)C(=O)c1ccccc1 (stereo not drawn) [Pentedrone, α-methylaminovalerophenone]	–	210 ± 20	666	138 ± 13.4	milder release	ceiling effect	–	–	–	–	–	–	–	–	–	significant increase	increased	–
CCCC(NC)C(=O)c1ccc2c(c1)OCO2 (stereo not drawn) [Pentylone, 3’,4’-methylendioxy-α-methylaminovalerophenone]	–	510 ± 70	45	23.2 ± 2.68	milder release	significant increase	–	–	–	–	significant increase	significant increase	–	–	–	–	increased	–
CCCC(NCC)C(=O)c1ccccc1 (stereo not drawn) [N-Ethyl-pentedrone, α-ethylaminovalerophenone]	–	100 ± 30	>1,000	127 ± 5.14	most potent	ceiling effect	–	increase	more than 1 hour	–	significant increase	significant increase	significant overexpression	–	–	significant increase	increased	–
CCCC(NCC)C(=O)c1ccc(C)cc1 (stereo not drawn) [4-MeAP, 4’-methyl-α-ethylaminovalerophenone]	–	140 ± 20	93	13.3 ± 0.89	most potent	significant increase	–	–	–	–	significant increase	significant increase	significant overexpression	–	–	–	increased	–
COC(=O)[C@H]1[C@@H](OC(=O)c2ccccc2)C[C@@H]2CC[C@H]1N2C [Cocaine, reference compound]	–	–	–	–	–	–	–	–	–	–	–	–	–	–	–	–	–	16,018 ± 1,118 cm
